# Test results from patent publication US10842852B2, “Methods of delivering a polypeptide molecule to Otx2 target cells using an Otx2 targeting peptide” (Centre National de la Recherche Scientifique, priority 2009, dated 2020).
# Entries after “also recorded” stand apart in the source; their conditions may differ. Ends that are not written are not given here.
# What was measured:
# [1] = test system: parvalbumin neurons of the visual cortex; test: WFA labeling and parvalbumin expression in visual cortex after peptide infusion; assay type: in vivo; settings: adult mice
# Procedure: In addition, treated mouse brain frontal sections were prepared, as described in example 4 above, in order to determine the influence of the RK-Otx2 peptide on parvalbumin neurons. The sections were labeled either with WFA, as described in example 3, or using a mouse anti-parvalbumin monoclonal antibody ( 1/500, Sigma-Aldrich), which was visualized using a donkey anti-mouse antibody labeled with Cy3. The labeled cells were quantified as described in example 4.
# [2] = test system: binding of AP-Nt-Otx2 to its target cells of the cerebral cortex; test: Blocking of AP-Nt-Otx2 binding to cortical target cells on adult mouse brain sections; settings: whole Otx2 1 μg/ml, peptides 2 μg/ml
# Procedure: The interaction, with the cells of the cerebral cortex, of the AP-Otx2, AP-Nt-Otx2, AP-Hd-Otx2 and AP-HdAA-Otx2 fusion proteins ([…] a variant of AP-Nt-Otx2 in which the RK amino acid doublet has been replaced with the AA doublet), alone (culture supernatant diluted to 1/20th) or in the presence of a whole Otx2 (1 μg/ml) or of the RK-Otx2 or AA-Otx2 peptides (2 μg/ml), was tested on cryostat sections of adult mouse brains, using the protocol described in example 1 above.
# [3] = test system: retinal ganglion neurons (RGCs) and bipolar cells on sections of retina; test: Binding test of AP fusion proteins and biotinylated peptides on sections of retina; settings: supernatants diluted to 1/20, 2 hours at room temperature, alkaline phosphatase detection
# Procedure: The sequences encoding the human Otx2 protein or encoding the fragments tested were cloned into the vector pAPtag-5 (GenHunter), in frame with the sequence encoding alkaline phosphatase. The various constructions carried out are represented diagrammatically in FIG. 1. HEK 293 cells cultured in culture dishes 10 cm in diameter were transfected with 10 μg of each of the vectors constructed, purified beforehand, using Lipofectamine 2000 (Invitrogen) according to the manufacturer's instructions. The transfected cells were incubated for 48 hours in DMEM/F12, supplemented with 10% of fetal bovine serum (FCS). The supernatant was collected, centrifuged at 100×g for 5 minutes and stored at −80° C. This supernatant is used, without purification, for testing the binding of the chimeric proteins on sections of retina. […]
# Biotinylated peptides corresponding to various fragments of the N-terminal domain+homeodomain portion of Otx2 were synthesized and the binding thereof to sections of retina, prepared as described above, was tested. The incubation of the peptides with the sections of retina was carried out under the same conditions as those described above, and then the sections bearing the bound peptides were incubated with alkaline phosphatase-labeled streptavidin, and the alkaline phosphatase activity was detected as described above.
# [4] = test system: binding of AP-Nt-Otx2 to bipolar cells and ganglion cells; test: Antagonism of AP-Nt-Otx2 binding to sections of retinas by peptides; settings: 2 μg/ml of peptide
# Procedure: In order to verify that the RK-Otx2 peptide indeed had the same binding specificity as AP-Nt-Otx2, the ability of the RK-Otx2 and AA-Otx2 polypeptides to antagonize the binding of AP-Nt-Otx2 was tested. The test for binding of AP-Nt-Otx2 to sections of retinas was carried out as described above, with the exception that the incubation of the supernatant containing AP-Nt-Otx2 was carried out in the presence of 2 μg/ml of the RK-Otx2 peptide or of the AA-Otx2 peptide.
# [5] = test system: plasticity of the visual cortex; test: Ocular dominance plasticity after 4 days monocular deprivation, single-unit extracellular electrophysiology; assay type: in vivo; settings: adult mice; for ocular dominance induced by monocular deprivation: 4 days monocular deprivation after treatment
# Procedure: The RK-Otx2 peptide or the AA-Otx2 peptide was infused in adult mice (therefore after closing of the critical period of plasticity), as described in example 4 above. Chondroitinase-ABC, or the injection buffer (deionized water+0.1% BSA), were injected (0.4 μl for each injection) at 3 sites surrounding the visual cortex (AP lambda, LM 1.5 mm; AP lambda, 4.0 mm; AP+1.5 mm; LM 2.5 mm) at two different depths (300 and 500 μm).
# After infusion of the peptides or injection of chondroitinase ABC, the mice are subjected to monocular deprivation for 4 days, and the responses to visual stimuli are then measured by single-unit extracellular electrophysiology. The electrophysiology recordings are carried out under nembutal/chlorprothixene anesthesia using standard techniques (Gordon & Stryker, J Neurosci, 16, 3274-86, 1996; Mataga et al., Neuron, 44, 1031-41, 2004). 5 to 7 single-unit recordings were carried out for each mouse, on both sides of the medial-lateral axis of the primary visual cortex, in order to cover the monocular zone and the binocular zone, and to avoid sampling biases. Cell dominance scores were assigned to the cell responses, using a 7-point classification system (Wiesel & Hubel, J Neurophysiol, 26, 978-93, 1963) (Gordon & Stryker, J Neurosci, 16, 3274-86, 1996). The ocular dominance in the binocular zone was calculated for each mouse according to a contralateral bias index (CBI), determined as follows:
# (CBI): [(n1−n7)+⅔(n2−n6)+⅓(n3−n5)+N]/2N, where N=total number of cells and nx=number of cells corresponding to an ocular dominance score of x.
# This weighted mean of the bias in favor of one or other eye can range from 0, for complete ipsilateral dominance, to 1, for complete contralateral dominance.
# [6] = test system: endogenous transfer of Otx2 to cells of the visual cortex; test: Infusion of peptides into the right visual cortex of adult mice, count of cells expressing Otx2; assay type: in vivo; settings: for number of cells expressing Otx2: adult mice, 0.25 mg/ml, 1 μl/h for 7 days into right visual cortex, infused vs control hemisphere
# Procedure: For this purpose, the RK-Otx2 peptide (0.25 mg/ml), the AA-Otx2 peptide (0.25 mg/ml), or PBS buffer, combined with polysialic acid (0.25 mg/ml, in order to enable diffusion of the peptides and to avoid nonspecific binding thereof to neurons expressing polysialic acid at their surface), were slowly infused (1 μl/h) for 7 days into the right visual cortex of adult mice, using osmotic minipumps (Alzet 1003D, Alza) connected to stereotaxically implanted cannulas (Hensch et al., Science, 282, 1504-8, 1998; Fagiolini & Hensch, Nature, 404, 183-6, 2000). At the end of the infusion, the mice are perfused with 4% PFA, and brain sections (25 μm) are cut in order to study the localization of Otx2 and that of the RK-Otx2 peptide. Otx2 is visualized using a rat anti-Otx2 monoclonal antibody diluted to 1/200 (Sugiyama et al., Cell, 134, 508-20, 2008), followed by a donkey anti-rat antibody labeled with Alexa 488 (Molecular Probes), diluted to 1/2000. The RK-Otx2 peptide is visualized using streptavidin labeled with Cy5.
# The cells expressing Otx2 were counted over a surface area of 700×350 μm encompassing layers I/II and IV of the binocular zone of the visual cortex.
# It was verified, by Sytox green labeling, that the infusion had no effect in itself on the number of cells. In order to be sure that the decrease in the number of cells expressing Otx2 was not due to cell death, an infusion of this peptide was carried out according to the protocol described above, and the number of cells expressing Otx2 was measured 8 days after the end of the infusion.
# retinal ganglion neurons [7] = test: Survival of retinal ganglion neurons after NMDA injection into the eye (Brn3A mRNA, quantitative RT-PCR); assay type: in vivo, C57 B16 mice; settings: mice, after 4 days
# Procedure: C57 B16 mice received, in the right eye, 1 μl of injection buffer (PBS or 9‰ NaCl) containing either 1 mM of NMDA, or 1 mM of NMDA supplemented with 30 ng of the chimeric polypeptide, and in the left eye, the same volume of injection buffer, without additive.
# The survival of the ganglion neurons was determined by measuring the level of expression of Brain 3A (Brn3A), a transcription factor which, in the retina, is specifically expressed in the ganglion neurons (Xiang et al., J. Neurosci., 15, 4762-4785, 1995).
# After 4 days, the animals are sacrificed, the retinas are removed, and the mRNA is extracted therefrom.
# The level of expression of Bm3A mRNA was determined by quantitative RT-PCR using the hypoxanthine phosphoribosyltransferase (HPRT) gene as reference gene, and the ratio between the expression of the Bm3A mRNA in the right eye and in the left eye was calculated.
# The results are illustrated by FIG. 5. The additives used are indicated along the x-axis; the ratio between the amounts of Brn3A mRNA (standardized relative to the HPRT mRNA) in the right eye and in the left eye is indicated along the y-axis.
# retinal ganglion neurons [8] = settings: previously shown, application PCT/FR 2009/000031; cited from earlier work
# [9] = test system: GAGs of the perineuronal net associated with parvalbumin neurons; test: Chondroitinase ABC treatment of adult mouse brain sections: WFA labeling and AP fusion protein binding; settings: brain sections incubated 24 hours with chondroitinase ABC 2 U/ml
# Procedure: In order to determine whether the perineuronal net associated with parvalbumin neurons was involved in the binding between AP-Nt-Otx2 and its target cells, the binding of AP-Otx2 was tested on cryostat sections of adult mouse brains fixed with methanol, and then incubated for 24 hours in the presence of chondroitinase ABC (2 U/ml) in a buffer containing 50 mM Tris [pH 8.0], 40 mM of sodium acetate, 0.1% BSA and protease inhibitors. In parallel, the sections, untreated or treated with chondroitinase ABC, were incubated with 0.01 mg/ml of Wisteria floribunda agglutinin lectin (WFA; Sigma-Aldrich), which binds to the GAGs of the perineuronal net, and which is labeled with FITC.
compound,measurement,setting,value
RKQRRERTTFTRAQL (also: biotin (position not given here)) [RK-Otx2],expression of the sites for the binding of WFA and of parvalbumin,[1]; after peptide infusion,"decreases the expression of the sites for the binding of WFA, and also that for parvalbumin"
same,decrease in the number of cells surrounded by sites for the binding of WFA,[1]; infused vs control hemisphere,51.3%
same,decrease in the number of parvalbumin-positive cells,[1]; infused vs control hemisphere,56.2%
same,blocking of the binding of AP-Nt-Otx2 to its cortical target cells,[2],block the binding of AP-Nt-Otx2 to its target cells
same,binding to retinal cells,[3],"has the same binding specificity as the AP-Otx2 and AP-Nt-Otx2 fusion proteins; also recorded: binds, like AP-Nt-Otx2, to the ganglion and bipolar cells"
same,blocking of the binding of AP-Nt-Otx2 to the bipolar cells and ganglion cells,[4],blocks the binding of AP-Nt-Otx2 to the bipolar cells and to the ganglion cells
same,ocular dominance induced by monocular deprivation,[5],induces an ocular dominance
same,contralateral bias index (CBI),"[5]; after peptide infusion and 4 days monocular deprivation, decrease from 0.7",0.57
same,amount of peptide detected in the visual cortex,[6]; 8 days after the end of infusion,only very small amounts
same,number of cells expressing Otx2 in the treated hemisphere,[6]; 8 days after the end of the infusion,restored to the level of that of the control hemisphere
same,number of cells expressing Otx2,[6],significantly reduces the number of cells expressing Otx2
chimeric polypeptide: amino acids 1-97 of Otx2 (N-terminal domain and homeodomain) fused with the VP16 trans-activator domain of the herpes virus (SEQ ID NO: 4) (MLGDGDSPGPGFTPHDSAPYGALDMADFEFEQMFTDALGIDEYGG; VP16 transactivator domain),protection of ganglion neurons against the toxic effects of NMDA (Brn3A mRNA ratio right eye/left eye),"retinal ganglion neurons [7]; 1 μl into right eye, 1 mM NMDA plus 30 ng chimeric polypeptide",effectively protects the ganglion neurons against the toxic effects of the NMDA
"CN[C@H](CC(=O)O)C(=O)O [NMDA, N-methyl-D-aspartate, reference compound]",decrease in the amount of ganglion neurons,"retinal ganglion neurons [7]; 1 μl of 1 mM NMDA alone into right eye, Brn3A mRNA",approximately 60%
AAQRRERTTFTRAQL (Targeting peptide inactive mutant) [AA-Otx2],blocking of the binding of AP-Nt-Otx2 to the bipolar cells and ganglion cells,[4],has no effect on this binding
same,number of cells expressing Otx2,[6],"only a small, insignificant reduction"
"Otx2: Orthodenticle homolog 2, homeoprotein containing a bicoid-type homeodomain",blocking of the binding of AP-Nt-Otx2 to its cortical target cells,[2],block the binding of AP-Nt-Otx2 to its target cells
same,protection of retinal ganglion neurons against the toxic effects of NMDA,retinal ganglion neurons [8],protects retinal ganglion neurons against the toxic effects of N-methyl-D-aspartate (NMDA)
chondroitinase ABC,effect of chondroitinase ABC treatment on binding of the AP fusion protein,[9],abolishes the binding of AP-Nt-Otx2
same,effect on GAGs of the perineuronal net (WFA labeling),[9],destroys the GAGs of the perineuronal net
same,ocular dominance induced by monocular deprivation,[5],as in those treated with the chondroitinase ABC
